The text below walks through data of paper PMC5438973 (Frontiers in Psychiatry, 2017).

Data set [1] concerns Male, Wistar rats. Briefly: Schedule-induced polydipsia. It counts as in vivo, rat. The settings on record: for Effect on excessive drinking / amount of water consumed / Effect on number of responses emitted (lever pressing for food): acute dosing; for Effect of antagonist on the decrease in excessive water consumption produced by CPD 1: CPD 1 5.6 mg/kg. The text has this:
Rats were used in these experiments as they have been utilized for such studies in the past with great success in generating significant polydipsia ([16]). Male, Wistar rats were singly housed, and maintained at approximately 85% of their free-feeding weights with free access to water. Twelve adult male, Wistar rats (Harlan Industries, Indianapolis, IN, USA) were used. They were allowed to acclimate to our vivarium for at least 3 days prior to testing. They were 2 months old at the start of the experiments that lasted approximately 6–8 months and were without explicit experimental experience prior to this study. The rats were singly housed, and maintained at approximately 86–91% of their free-feeding weights with post session supplemental feeding of Lab Diet #5001 for rodents (PMI Nutrition International Inc., St. Louis, MO, USA). Body weights were corrected for the normal growth curve of Wistar rats such that actual body weight of each rat increased over the experimental time frame. Water was available continuously in the individual home cages. Rats were inspected daily 7 days/week by experimenters and veterinary staff.
The experiments were conducted using operant behavior test chambers ENV-007 (Med Associates Inc., Georgia, VT, USA), 30.5 cm × 24.1 cm × 29.2 cm. The test chambers were contained within light and sound attenuating shells. A food trough was mounted 2 cm off the grid floor on the centerline. Two response levers were centered 8 cm off the centerline and 7 cm off the grid floor. Three lights were located above each response lever at 15 cm off the grid floor. All events were controlled and lever-press data were recorded by a Compaq computer running MED-PC Version IV (Med Associates Inc., Georgia, VT, USA). The water bottle located within each chamber was weighed before and after experimental sessions.
Experimental sessions lasted 90 min. Test compounds or drug vehicle were administered on Tuesdays and Fridays, given the stability of performance (within 15% variation of the individual animal). Non-injection, control performances were on Thursdays. […] Dose-effect curves and drug interaction data were created by repeated testing in groups of five to eight rats. Test compounds were administered as described in figure legends. The effects of the compound are expressed as a percent of control for each individual animal. Results were analyzed by ANOVA followed by Dunnett’s multiple comparison (p < 0.05).
Thus, in keeping with the guidelines of animal care and use followed here, we utilized the minimum number of animals required for signal detection.

For data set [2], the system named is Male, NIH Swiss mice. The settings on record: 12/dose group.
Data set [3] concerns Male, NIH Swiss mice. As to conditions: mouse, in vivo, 60 min.
The subject of data set [4] is Male, NIH Swiss mice. Briefly: Nestlet-shredding. The settings on record: 8/dose group.
Data set [5] has as its system Male, NIH Swiss mice. Briefly: Rotarod performance. It counts as in vivo, mouse. The text has this: Mice were not pretrained on this task.
Data set [6] deals with Male, Wistar rats. Briefly: Isoproterenol-induced drinking. The settings on record: (±)-isoproterenol 30 μg/kg, s.c. It counts as in vivo, rat. The method, then: Male, Wistar rats (different from those rats used in the schedule-induced polydipsia studies) were used. They were 331 ± 11 g at the initiation of this study. Compound 1 (5.6 mg/kg, s.c.) was evaluated for its ability to reduce drinking. (±)-isoproterenol (30 μg/kg, s.c.) was given to induce drinking (n = 5–20 rat/group). Ten minutes after vehicle or (±)-isoproterenol injection, rats were given either vehicle or Compound 1 and a 60 min session began in which the rats in individual housing cages were given access to water 20 min after the second injection. The weight of the water bottle before and after the 60 min period was measured to the nearest 0.1 g. After the experiment, the animals were returned to their living cages with continuous access to food and water.

For a further data set, the target named is T1, h5-HT2B (Homo sapiens, UniProt P41595).
T1 construct: expressed in transfected cells; host or cells: AV12 cells
T1 sequence (P41595 whole entry): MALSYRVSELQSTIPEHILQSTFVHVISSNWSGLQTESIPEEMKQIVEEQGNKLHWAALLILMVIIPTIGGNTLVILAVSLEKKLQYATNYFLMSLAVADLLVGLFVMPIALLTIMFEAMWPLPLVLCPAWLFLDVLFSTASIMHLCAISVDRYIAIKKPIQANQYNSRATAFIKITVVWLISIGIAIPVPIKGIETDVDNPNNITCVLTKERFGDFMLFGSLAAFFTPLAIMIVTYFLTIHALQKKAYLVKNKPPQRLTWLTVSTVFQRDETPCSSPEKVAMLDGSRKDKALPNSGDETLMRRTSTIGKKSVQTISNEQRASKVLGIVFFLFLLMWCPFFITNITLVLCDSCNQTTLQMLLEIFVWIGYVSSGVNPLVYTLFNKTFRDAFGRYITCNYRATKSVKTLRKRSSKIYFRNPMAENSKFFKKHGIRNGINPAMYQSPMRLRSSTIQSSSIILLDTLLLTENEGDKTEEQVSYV
Kind of data set: GTP-γ-[35S] functional assay (SPA), AV12 cells. It counts as biochemical. The settings on record: GTPgs functional assay, human recombinant cell line. The text has this: (§1) 5-HT2 receptors are functionally coupled to specific G-proteins. Agonist activation of 5-HT2 G-protein coupled receptors results in the release of GDP from alpha-subunit (G alpha q or G alpha i) of the G-protein and the subsequent binding of GTP. The binding of the stable analog GTP-g-[^35S] is an indicator of receptor activation. Human cloned 5-HT2A, −2B, and −2C receptors were expressed in AV12 cells. GTP-g-[^35S] nucleotide exchange scintillation proximity assay (SPA) was used to measure binding as previously described ([14]).

A further data set has as its target T2, h5-HT2A (Homo sapiens, UniProt P28223).
T2 construct: expressed in transfected cells; host or cells: AV12 cells
Briefly: GTP-γ-[35S] functional assay (SPA), AV12 cells. It counts as biochemical. As to conditions: GTPgs functional assay, human recombinant cell line.
Source text: as §1

The next data set deals with T3, h5-HT2C (Homo sapiens, UniProt P28335).
T3 construct: expressed in transfected cells; host or cells: AV12 cells
T3 sequence (P28335 33-458): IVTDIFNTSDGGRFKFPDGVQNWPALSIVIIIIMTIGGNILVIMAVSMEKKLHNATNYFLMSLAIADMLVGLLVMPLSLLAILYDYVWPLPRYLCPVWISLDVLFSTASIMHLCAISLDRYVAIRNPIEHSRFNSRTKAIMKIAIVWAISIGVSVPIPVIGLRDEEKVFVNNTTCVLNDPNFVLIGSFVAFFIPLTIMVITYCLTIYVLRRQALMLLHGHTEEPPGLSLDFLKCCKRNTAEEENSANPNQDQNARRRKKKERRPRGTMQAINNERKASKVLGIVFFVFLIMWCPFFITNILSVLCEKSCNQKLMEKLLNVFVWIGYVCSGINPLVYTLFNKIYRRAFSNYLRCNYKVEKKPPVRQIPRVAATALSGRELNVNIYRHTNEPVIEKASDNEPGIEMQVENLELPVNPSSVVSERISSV
Kind of data set: GTP-γ-[35S] functional assay (SPA), AV12 cells. It counts as biochemical. The settings on record: GTPgs functional assay, human recombinant cell line.
Source text: as §1

Data set [7] relates to Male, NIH Swiss mice. Briefly: Locomotor activity. The settings on record: 12/dose group.
Setting [8] is: fluoxetine 30 mg/kg with SB-242084 3 mg/kg.

Like-named read-outs stand apart in the source and are kept apart here. Where only a bound is given, the exact number is not on record here.

T2 sequence (P28223 whole entry): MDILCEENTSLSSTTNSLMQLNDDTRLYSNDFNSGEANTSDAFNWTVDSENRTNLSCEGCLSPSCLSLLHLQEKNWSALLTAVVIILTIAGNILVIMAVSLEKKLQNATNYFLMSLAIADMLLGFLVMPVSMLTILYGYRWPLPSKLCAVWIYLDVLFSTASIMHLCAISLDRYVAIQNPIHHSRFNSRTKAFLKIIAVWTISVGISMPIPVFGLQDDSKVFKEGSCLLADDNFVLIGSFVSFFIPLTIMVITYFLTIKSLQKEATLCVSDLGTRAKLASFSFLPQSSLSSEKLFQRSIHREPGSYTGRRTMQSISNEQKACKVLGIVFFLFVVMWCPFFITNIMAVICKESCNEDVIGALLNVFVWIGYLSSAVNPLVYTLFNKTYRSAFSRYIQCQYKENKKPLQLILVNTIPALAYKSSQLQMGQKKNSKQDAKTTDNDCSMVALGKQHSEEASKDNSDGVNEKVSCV

Take `CN(C)CCCN1c2ccccc2CCc2ccc(Cl)cc21` [Clomipramine, clomipramine]: in the data set on Male, Wistar rats [1] (given alone), the “Effect on excessive drinking / amount of water consumed” value (from here on “Effect on excessive drinking / amount”) is reported as “decreased” and the “Effect on number of responses emitted (lever pressing for food)” value (“Effect on number of responses emitted” below) is given as “decreased”.
`C[C@H](N)Cc1ccccc1` [D-amphetamine]: in the data set with Male, Wistar rats [1] (given alone), the “Effect on excessive drinking / amount” value was “decreased” and the “Effect on number of responses emitted” value is recorded as “increased”.
`CNCCC(Oc1ccc(C(F)(F)F)cc1)c1ccccc1` (stereo not shown) [Fluoxetine, fluoxetine]: the “Marble-burying, minimal effective dose” value in the data set on Male, NIH Swiss mice [2] stood at 10 milligrams per kilogram. Also, the “Locomotor activity, minimal effective dose” value in the data set on Male, NIH Swiss mice [3] was over 10 milligrams per kilogram. For the same compound, the “Nestlet-shredding, minimal effective dose” value in the data set on Male, NIH Swiss mice [4] came to 10 milligrams per kilogram. Besides, in the data set with Male, NIH Swiss mice [5] (male, NIH Swiss, mouse, in vivo, 2 min), the “Rotarod, minimal effective dose” value is over 30 milligrams per kilogram. Besides, the “Responses (Rsp) in percent of controls” value in the data set on Male, Wistar rats [1] (10 mg/kg given alone) is 102.3% of controls; with Male, Wistar rats [1] (30 mg/kg, i.p., given alone), 6% of controls; with Male, Wistar rats [1] (setting [8]) it was 92.7% of controls. In addition, the “Water consumed (H2O) in percent of controls” value is on record as 66.7% of controls in the data set with Male, Wistar rats [1] (10 mg/kg given alone); 8% of controls in the data set with Male, Wistar rats [1] (30 mg/kg, i.p., given alone); 99.2% of controls in the data set with Male, Wistar rats [1] (fluoxetine 10 mg/kg with SB-242084 3 mg/kg); 101.4% of controls in the data set with Male, Wistar rats [1] (setting [8]). Further, in the data set on Male, Wistar rats [1] (Dunnett p < 0.05), the “Dose at which statistically significant reduction of excessive drinking was detected” value worked out at 20 mg/kg. Further, the “Dose at which statistically significant reduction of food-maintained responding was detected” value in the data set with Male, Wistar rats [1] (Dunnett p < 0.05) stood at 20 mg/kg.
Take `CC(C)NCC(O)c1ccc(O)c(O)c1` (stereo not shown) [Isoproterenol, isoproterenol, reference compound]: in the data set on Male, Wistar rats [6], the “Increase of water consumption relative to vehicle-treated rats” value worked out at 432%.
As to `COc1cccc([C@H](O)C2CCN(CCc3ccc(F)cc3)CC2)c1OC` [MDL100907, (R)-(2,3-dimethoxyphenyl)-[1-[2-(4-fluorophenyl)ethyl]-4-piperidyl]methanol], the “Effect of antagonist on the decrease in excessive water consumption produced by CPD 1” value in the data set on Male, Wistar rats [1] is given as “did not significantly alter”.
Turning to `CCCC(C)C1(CC)C(=O)NC(=O)NC1=O` (stereo not shown) [Pentobarbital, pentobarbital], in the data set with Male, NIH Swiss mice [2], the “Marble-burying, minimal effective dose” value was over 17 milligrams per kilogram. In addition, the “Nestlet-shredding, minimal effective dose” value in the data set with Male, NIH Swiss mice [4] is reported as 10 milligrams per kilogram. Also, in the data set on Male, NIH Swiss mice [5] (mice, 12/dose group), the “Rotarod, minimal effective dose” value is given as 5.6 milligrams per kilogram.
Turning to `C[C@H](N)Cn1ccc2cc(F)c(Cl)cc21` [Ro 60-0175], the “Marble-burying, minimal effective dose” value with Male, NIH Swiss mice [2] is 0.1 milligrams per kilogram. Also, the “Nestlet-shredding, minimal effective dose” value in the data set with Male, NIH Swiss mice [4] is “less than 1 milligrams per kilogram”; in the data set with Male, NIH Swiss mice [4] (listed as RO 60-0175) it was under 1 milligrams per kilogram. In addition, the “Rotarod, minimal effective dose” value in the data set with Male, NIH Swiss mice [5] (mice, 12/dose group) was “greater than 1 milligrams per kilogram”; in the data set with Male, NIH Swiss mice [5] (mice, 12/dose group, listed as RO 60-0175), over 10 milligrams per kilogram. In addition, in the data set with Male, Wistar rats [1] (given alone), the “Effect on excessive drinking / amount” value was “significantly decreased”. In the data set with Male, Wistar rats [1] (given alone), the “Effect on number of responses emitted” value is “significantly decreased”. Also, the EC50 worked out at 57 ± 1 nM at h5-HT2B, 130 ± 1 nM on h5-HT2A and 5.1 ± 1 nM at h5-HT2C. The results for the maximum response (Emax) on h5-HT2B, at h5-HT2A and on h5-HT2C were 58 ± 1%, 59 ± 1% and 104 ± 1%, respectively. Moreover, the “Locomotor activity, minimal effective dose” value with Male, NIH Swiss mice [7] is reported as “greater than 10 milligrams per kilogram”; in the data set on Male, NIH Swiss mice [7] (listed as RO 60-0175), over 1 milligrams per kilogram.
On to `Cc1cc2c(cc1Cl)N(C(=O)Nc1ccc(Oc3cccnc3C)nc1)CC2` [SB242084, 6-chloro-5-methyl-N-{6-[(2-methylpyridin-3-yl)oxy]pyridin-3-yl}indoline-1-carboxamide], for which, in the data set on Male, Wistar rats [1] (3 mg/kg given alone), the “Responses in percent of control” value was 191.2% of controls and the “Water consumed (H2O) in percent of control” value is on record as 112.1% of controls. Moreover, in the data set on Male, Wistar rats [1], the “Effect of antagonist on the decrease in excessive water consumption produced by CPD 1” value is reported as “prevented”. Also, the “Effect of antagonist on the effects of D-amphetamine” value with Male, Wistar rats [1] (SB242084 3 mg/kg, D-amphetamine 3 mg/kg) was “did not alter”. In addition, the “Effect of antagonist on the decreases in water consumption and response output produced by fluoxetine” value in the data set on Male, Wistar rats [1] (SB-242084 3 mg/kg, fluoxetine 30 mg/kg) is reported as “significantly attenuated”. Moreover, in the data set with Male, Wistar rats [1] (given alone), the “Effect on excessive drinking / amount” value is reported as “did not significantly affect” and the “Effect on number of responses emitted” value is “increased”.
For the compound `Clc1cccc(N2CCNCC2)c1` [mCPP, meta-chlorophenylpiperazine, reference compound], in the data set with Male, Wistar rats [1] (given alone), the “Effect on excessive drinking / amount” value is “significantly decreased”. Further, the “Effect on number of responses emitted” value in the data set with Male, Wistar rats [1] (given alone) is on record as “significantly decreased”. Also, the figures for the Emax on h5-HT2B, on h5-HT2A and on h5-HT2C were 84 ± 2%, 88 ± 2% and 99 ± 2%, respectively.

The term EC50 denotes the concentration needed to bring the measured effect to its halfway point. As a reminder, the Emax is the maximal effect, on the per cent scale that the assay sets.
